Source: the supplement of paper PMC13380429

How the values were obtained:
[1] = system: A549-ACE2; experiment: drug-induced phospholipidosis relative to tamoxifen; higher = more phospholipidosis
[2] = system: Vero E6; experiment: cell viability relative to DMSO; higher = less toxic; conditions: 72 h
[3] = system: Caco-2; experiment: as above; conditions: 72 h
[4] = system: Calu-3; experiment: as above; conditions: 72 h
[5] = system: U2OS; experiment: as above; conditions: 72 h
[6] = system: HepG2; experiment: as above; conditions: 72 h
[7] = system: A549-ACE2 infected with SARS-CoV-2; experiment: SARS-CoV-2 infection rate relative to DMSO; higher = more infection; conditions: 24 h
[8] = system: Vero E6; experiment: relative viability EC50 (midpoint between 100% and the lowest measured viability); higher = less toxic; conditions: 72 h
[9] = system: Caco-2; experiment: as above; conditions: 72 h
[10] = system: Calu-3; experiment: as above; conditions: 72 h
[11] = system: U2OS; experiment: as above; conditions: 72 h
[12] = system: HepG2; experiment: as above; conditions: 72 h
[13] = system: Vero E6; experiment: drug sensitivity score (DSS) for viability; higher = more toxic; extreme values may be limits of the assay; conditions: 72 h
[14] = system: Caco-2; experiment: as above; conditions: 72 h
[15] = system: Calu-3; experiment: as above; conditions: 72 h
[16] = system: U2OS; experiment: as above; conditions: 72 h
[17] = system: HepG2; experiment: as above; conditions: 72 h
[18] = system: A549-ACE2 infected with SARS-CoV-2; experiment: morphology score (similarity to uninfected cells); higher = more like uninfected cells; conditions: 24 h
[19] = system: A549-ACE2 infected with SARS-CoV-2; experiment: cell count relative to DMSO; higher = less toxic; conditions: 24 h
[20] = system: A549-ACE2; experiment: phospholipidosis EC50; higher = less potent phospholipidosis inducer

COc1ccc(/C=C2\CCCN=C2c2cccnc2)c(OC)c1 [GTS21]
drug-induced phospholipidosis [%], [1]
Conditions	0.3 µM	0.833333 µM	3.33333 µM	6.66667 µM	10 µM	30 µM
24 h	2.83	0.08	1.02	-1.62	5.46	7.31
48 h	4.89	-1.26	2.13	1.63	7.64	10
72 h	3.83	-0.539	2.57	1.51	7.5	15.1

Conditions	SARS-CoV-2 infection rate, [7] [%]	cell count, [19] [%]	cell viability, [2] [%]	cell viability, [3] [%]	cell viability, [4] [%]	cell viability, [5] [%]	cell viability, [6] [%]	morphology score, [18]
1 nM	–	–	107	104	97.4	94.8	113	–
10 nM	–	–	100	97.2	94.1	105	101	–
100 nM	–	–	103	93.9	101	96.2	101	–
0.3 µM	108	96	–	–	–	–	–	-0.18
1000 nM	–	–	102	106	95.3	102	104	–
3 µM	99	99	–	–	–	–	–	-0.04
10000 nM	–	–	86.3	95.4	97	90.9	93.7	–
10 µM	86	110	–	–	–	–	–	0.24
30 µM	28	118	–	–	–	–	–	0.78

Conditions	drug sensitivity score	relative viability EC50 [µM]
[8]	–	> 10
[9]	–	> 10
[10]	–	> 10
[11]	–	> 10
[12]	–	> 10
[13]	0.1	–
[14]	0	–
[15]	0	–
[16]	0	–
[17]	0	–

CCN(CC)CCOc1ccc(C(O)(Cc2ccc(Cl)cc2)c2ccc(C)cc2)cc1 (stereo not drawn) [Triparanol]
Conditions	drug sensitivity score
[13]	0.7
[15]	5.5
[16]	1.3
[17]	6.4

Conditions	morphology score, 0.1 µM	morphology score, 0.3 µM	morphology score, 1 µM	morphology score, 3 µM	phospholipidosis EC50, 24 h [µM]	phospholipidosis EC50, 48 h [µM]	phospholipidosis EC50, 72 h [µM]
[18]	0.02	-0.17	0.22	0.85	–	–	–
[20]	–	–	–	–	2.19	2.74	3.71

CCCc1cc(C)[nH]c(=O)c1CNC(=O)c1cc(-c2ccc(N3CCN(C(C)C)CC3)nc2)cc2c1cnn2C(C)C [UNC1999]
drug-induced phospholipidosis [%], [1]
Conditions	0.3 µM	0.833333 µM	3.33333 µM	6.66667 µM	10 µM	30 µM
24 h	15.7	-2.03	5.96	5.07	18.5	38.5
48 h	6.9	-2.52	5.26	6.51	17.6	36.4
72 h	1.41	-4.2	4.48	4.14	13.9	37

Conditions	SARS-CoV-2 infection rate, [7] [%]	cell count, [19] [%]	cell viability, [2] [%]	cell viability, [3] [%]	cell viability, [4] [%]	cell viability, [5] [%]	cell viability, [6] [%]	morphology score, [18]
1 nM	–	–	95.6	107	94.2	99.1	109	–
10 nM	–	–	94.6	103	103	102	100	–
100 nM	–	–	95.2	97.6	96.5	99.3	93.3	–
0.3 µM	100	103	–	–	–	–	–	0.06
1000 nM	–	–	84.7	96.9	91.4	107	99.6	–
3 µM	87	109	–	–	–	–	–	0.43
10000 nM	–	–	107	83.9	89.4	102	88.7	–
10 µM	29	119	–	–	–	–	–	0.8
30 µM	13	121	–	–	–	–	–	0.6

Conditions	drug sensitivity score	relative viability EC50 [µM]
[8]	–	> 10
[9]	–	> 10
[10]	–	> 10
[11]	–	> 10
[12]	–	> 10
[13]	0	–
[14]	0.6	–
[15]	0.1	–
[16]	0	–
[17]	0	–

CN1CCCC(CN2c3ccccc3Sc3ccccc32)C1 (stereo not drawn) [mepazine]
drug-induced phospholipidosis [%], [1]
Conditions	0.3 µM	0.833333 µM	3.33333 µM	6.66667 µM	10 µM	30 µM
24 h	2.48	6.78	32.9	53.3	64.8	70.3
48 h	1.98	4.75	20.8	48.9	65.8	86.6
72 h	3.11	3.43	18.8	39.1	63.9	101

Conditions	SARS-CoV-2 infection rate [%]	cell count [%]	cell viability [%]	morphology score	phospholipidosis EC50 [µM]
[2], 1 nM	–	–	101	–	–
[2], 10 nM	–	–	101	–	–
[2], 100 nM	–	–	103	–	–
[2], 1000 nM	–	–	97.1	–	–
[2], 10000 nM	–	–	94.8	–	–
[3], 1 nM	–	–	94.1	–	–
[3], 10 nM	–	–	98.3	–	–
[3], 100 nM	–	–	98.2	–	–
[3], 1000 nM	–	–	101	–	–
[3], 10000 nM	–	–	85.7	–	–
[4], 1 nM	–	–	106	–	–
[4], 10 nM	–	–	99.2	–	–
[4], 100 nM	–	–	99.3	–	–
[4], 1000 nM	–	–	99.5	–	–
[4], 10000 nM	–	–	72.8	–	–
[5], 1 nM	–	–	99.1	–	–
[5], 10 nM	–	–	98.6	–	–
[5], 100 nM	–	–	98.6	–	–
[5], 1000 nM	–	–	100	–	–
[5], 10000 nM	–	–	91.4	–	–
[6], 1 nM	–	–	98.3	–	–
[6], 10 nM	–	–	102	–	–
[6], 100 nM	–	–	100	–	–
[6], 1000 nM	–	–	87.9	–	–
[6], 10000 nM	–	–	84.8	–	–
[7], 0.3 µM	102	–	–	–	–
[7], 3 µM	59	–	–	–	–
[7], 10 µM	16	–	–	–	–
[7], 30 µM	27	–	–	–	–
[18], 0.3 µM	–	–	–	0.02	–
[18], 3 µM	–	–	–	0.61	–
[18], 10 µM	–	–	–	0.86	–
[18], 30 µM	–	–	–	0.32	–
[19], 0.3 µM	–	103	–	–	–
[19], 3 µM	–	112	–	–	–
[19], 10 µM	–	122	–	–	–
[19], 30 µM	–	113	–	–	–
[20], 24 h	–	–	–	–	3.88
[20], 48 h	–	–	–	–	6.39
[20], 72 h	–	–	–	–	9.51

Conditions	drug sensitivity score	relative viability EC50 [µM]
[8]	–	> 10
[9]	–	> 10
[11]	–	> 10
[12]	–	> 10
[13]	0	–
[14]	0.1	–
[15]	1.2	–
[16]	0	–
[17]	1.1	–
